In PubChem BioAssay (NCI):
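Interpolation was linear, between the two tested concentrations surrounding the appropriate level; five concentrations were tested over 48 hours in 96-well plates. GI50 is the concentration that inhibits growth by half. TGI: concentration producing complete growth inhibition.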

Key:
Assay in all cases: NCI anticancer screen, dose series, 48 h
A498 renal = test system: A498 renal
ACHN renal = test system: ACHN renal
HCC-2998 colon = test system: HCC-2998 colon
HOP-92 NSCLC = test system: HOP-92 NSCLC
M14 melanoma = test system: M14 melanoma
NCI-H23 lung = test system: NCI-H23 lung
SF-539 CNS = test system: SF-539 CNS
SW-620 colon = test system: SW-620 colon
A549 NSCLC = test system: A549 NSCLC
HL-60(TB) leukemia = test system: HL-60(TB) leukemia

N#CCc1nc2c(s1)C(=O)c1ccccc1C2=O
TGI (A498 renal): 59.1 µM | TGI (ACHN renal): 27.4 µM | TGI (HCC-2998 colon): 38 µM | TGI (HOP-92 NSCLC): 34.4 µM | TGI (M14 melanoma): 28.5 µM | TGI (NCI-H23 lung): 36.4 µM | TGI (SF-539 CNS): 28 µM | TGI (SW-620 colon): 34.8 µM

COc1cc([N+](=O)[O-])c2ncccc2c1O
GI50 (A498 renal): 1.31 µM | TGI (A498 renal): 4.25 µM | GI50 (A549 NSCLC): 0.32 µM | TGI (A549 NSCLC): 1.74 µM | GI50 (ACHN renal): 6.08 µM | TGI (ACHN renal): > 100 µM | GI50 (HL-60(TB) leukemia): 43.3 µM | TGI (HL-60(TB) leukemia): > 100 µM | GI50 (HOP-92 NSCLC): 47.1 µM | TGI (HOP-92 NSCLC): > 100 µM | GI50 (M14 melanoma): 1.45 µM | TGI (M14 melanoma): 3.02 µM | GI50 (NCI-H23 lung): 1.37 µM | TGI (NCI-H23 lung): 4.8 µM | GI50 (SF-539 CNS): 2.59 µM | TGI (SF-539 CNS): 9.41 µM | GI50 (SW-620 colon): 4.07 µM | TGI (SW-620 colon): > 100 µM

Clc1cccc(C2SCc3nc4ccccc4n32)c1Cl (centres undefined)
TGI (A498 renal): 29.2 µM | TGI (A549 NSCLC): 41.9 µM | TGI (ACHN renal): 35.3 µM | TGI (HL-60(TB) leukemia): 20.3 µM | TGI (HOP-92 NSCLC): 30.1 µM | TGI (M14 melanoma): 30.5 µM | TGI (NCI-H23 lung): 32.1 µM | TGI (SF-539 CNS): 32.5 µM | TGI (SW-620 colon): 30.8 µM

CCCCCCCCSC(SCCCCCCCC)=C1C(=O)N(c2ccccc2)N=C1C
TGI (A498 renal): 92.7 µM | TGI (A549 NSCLC): > 100 µM | TGI (ACHN renal): > 100 µM | TGI (HCC-2998 colon): > 100 µM | TGI (HL-60(TB) leukemia): 43.7 µM | TGI (HOP-92 NSCLC): 77.8 µM | TGI (M14 melanoma): > 100 µM | TGI (NCI-H23 lung): 95.1 µM | TGI (SW-620 colon): 29 µM

O=C1CCC(c2ccccc2)(c2ccccc2)CC1
TGI (A498 renal): > 100 µM | TGI (A549 NSCLC): > 100 µM | TGI (ACHN renal): > 100 µM | TGI (HL-60(TB) leukemia): 81 µM | TGI (HOP-92 NSCLC): > 100 µM | TGI (M14 melanoma): > 100 µM | TGI (NCI-H23 lung): > 100 µM | TGI (SW-620 colon): > 100 µM

COCCOC(=O)CCn1cc(F)c(=O)[nH]c1=O
GI50 (A498 renal): 0.989 µg/mL | TGI (A498 renal): > 150 µg/mL | GI50 (A549 NSCLC): 1.79 µg/mL | TGI (A549 NSCLC): > 150 µg/mL | GI50 (ACHN renal): 8.67 µg/mL | TGI (ACHN renal): > 150 µg/mL | GI50 (HL-60(TB) leukemia): 13.6 µg/mL | TGI (HL-60(TB) leukemia): > 150 µg/mL | GI50 (HOP-92 NSCLC): 77.6 µg/mL | TGI (HOP-92 NSCLC): > 150 µg/mL | GI50 (M14 melanoma): 8.38 µg/mL | TGI (M14 melanoma): > 150 µg/mL | GI50 (NCI-H23 lung): 17.2 µg/mL | TGI (NCI-H23 lung): > 150 µg/mL | GI50 (SF-539 CNS): 7.42 µg/mL | TGI (SF-539 CNS): > 150 µg/mL | GI50 (SW-620 colon): 26.9 µg/mL | TGI (SW-620 colon): > 150 µg/mL

COS(=O)CCOC(=O)c1ccccc1SSc1ccccc1C(=O)OCCS(=O)OC (centres undefined)
TGI (A498 renal): > 100 µM | TGI (A549 NSCLC): > 100 µM | TGI (ACHN renal): > 100 µM | TGI (HOP-92 NSCLC): 74.2 µM | TGI (M14 melanoma): 57.8 µM | TGI (NCI-H23 lung): 44.4 µM | TGI (SF-539 CNS): 65.6 µM | TGI (SW-620 colon): 87.4 µM

OCC1CC2CC1C1(C2)OCCO1 (centres undefined)
TGI (A498 renal): > 100 µM | TGI (A549 NSCLC): > 100 µM | TGI (ACHN renal): > 100 µM | TGI (HL-60(TB) leukemia): > 100 µM | TGI (HOP-92 NSCLC): > 100 µM | TGI (M14 melanoma): > 100 µM | TGI (NCI-H23 lung): > 100 µM | TGI (SF-539 CNS): > 100 µM | TGI (SW-620 colon): > 100 µM

CC(=O)OCC1OC(O[C@@H]2C[C@H]3C(C)(C)[C@H](OC(C)=O)CC[C@]3(C)[C@H]3CC[C@@H]4[C@]5(CC[C@@]4(C)[C@@]32C)O[C@@H]([C@H](O)C(C)(C)O)C[C@@H]5C)C(O)C(O)C1O (some centres undefined)
GI50 (A498 renal): 11.7 µM | TGI (A498 renal): 25.9 µM | GI50 (A549 NSCLC): 5.1 µM | TGI (A549 NSCLC): 18.3 µM | GI50 (ACHN renal): 9.23 µM | TGI (ACHN renal): 21.3 µM | GI50 (HCC-2998 colon): 3.64 µM | TGI (HCC-2998 colon): 15.9 µM | GI50 (HL-60(TB) leukemia): 2.93 µM | TGI (HL-60(TB) leukemia): 10.2 µM | GI50 (HOP-92 NSCLC): 10 µM | TGI (HOP-92 NSCLC): 21.6 µM | GI50 (M14 melanoma): 5.01 µM | TGI (M14 melanoma): 17.6 µM | GI50 (NCI-H23 lung): 12.9 µM | TGI (NCI-H23 lung): 26.9 µM | GI50 (SW-620 colon): 10.4 µM | TGI (SW-620 colon): 22.9 µM

O=C(O)C1C2CC3CC2CC31 (centres undefined)
TGI (A498 renal): > 100 µM | TGI (A549 NSCLC): > 100 µM | TGI (ACHN renal): > 100 µM | TGI (HL-60(TB) leukemia): > 100 µM | TGI (HOP-92 NSCLC): > 100 µM | TGI (M14 melanoma): > 100 µM | TGI (NCI-H23 lung): > 100 µM | TGI (SF-539 CNS): > 100 µM | TGI (SW-620 colon): > 100 µM

ClCc1ccc(Cn2cnc3ncnc(Cl)c32)cc1
GI50 (A498 renal): 1.81 µM | TGI (A498 renal): 3.37 µM | GI50 (A549 NSCLC): 1.81 µM | TGI (A549 NSCLC): 4.13 µM | GI50 (HCC-2998 colon): 1.42 µM | TGI (HCC-2998 colon): 2.87 µM | GI50 (HOP-92 NSCLC): 1.17 µM | TGI (HOP-92 NSCLC): 2.52 µM | GI50 (M14 melanoma): 2.73 µM | TGI (M14 melanoma): 13 µM | GI50 (NCI-H23 lung): 16 µM | TGI (NCI-H23 lung): 30.6 µM | GI50 (SF-539 CNS): 2.08 µM | TGI (SF-539 CNS): 3.74 µM | GI50 (SW-620 colon): 2.58 µM | TGI (SW-620 colon): 7.18 µM

O=[N+]([O-])C(=C(c1ccccc1)c1ccccc1)[N+](=O)[O-]
TGI (A498 renal): 28.6 µM | TGI (A549 NSCLC): 51.3 µM | TGI (ACHN renal): 25.5 µM | TGI (HCC-2998 colon): 24 µM | TGI (HL-60(TB) leukemia): 8.74 µM | TGI (M14 melanoma): 25.4 µM | TGI (NCI-H23 lung): 52.8 µM | TGI (SF-539 CNS): 26.5 µM | TGI (SW-620 colon): 25.4 µM

C=C(C)[C@@H]1CC[C@]2(C#N)CC[C@]3(C)[C@H](CC[C@@H]4[C@@]5(C)CCCNC(C)(C)[C@@H]5CC[C@]43C)[C@@H]12
GI50 (A498 renal): 10.1 µM | TGI (A498 renal): 23 µM | GI50 (A549 NSCLC): 1.94 µM | TGI (A549 NSCLC): 3.77 µM | GI50 (ACHN renal): 1.83 µM | TGI (ACHN renal): 3.22 µM | GI50 (HCC-2998 colon): 1.8 µM | TGI (HCC-2998 colon): 3.24 µM | GI50 (HOP-92 NSCLC): 2.69 µM | TGI (HOP-92 NSCLC): 11.3 µM | GI50 (M14 melanoma): 1.83 µM | TGI (M14 melanoma): 3.49 µM | GI50 (NCI-H23 lung): 3.32 µM | TGI (NCI-H23 lung): 10.9 µM | GI50 (SF-539 CNS): 1.67 µM | TGI (SF-539 CNS): 3.11 µM | GI50 (SW-620 colon): 1.77 µM | TGI (SW-620 colon): 3.42 µM

COc1ccc2c3c([nH]c2c1)[C@H]1C[C@H]2[C@H](C[C@@H](O)[C@H](OC)[C@H]2C(=O)O)CN1CC3
TGI (A498 renal): > 100 µM | TGI (A549 NSCLC): > 100 µM | TGI (ACHN renal): > 100 µM | TGI (HCC-2998 colon): > 100 µM | TGI (HOP-92 NSCLC): > 100 µM | TGI (M14 melanoma): > 100 µM | TGI (NCI-H23 lung): > 100 µM | TGI (SF-539 CNS): > 100 µM | TGI (SW-620 colon): > 100 µM

COCCn1cc(-c2csc(-c3c[nH]c4ccc(F)cc34)n2)c2cccnc21
GI50 (A498 renal): 3.26 µM | TGI (A498 renal): 9.4 µM | GI50 (A549 NSCLC): 4.51 µM | TGI (A549 NSCLC): > 100 µM | GI50 (ACHN renal): 5.27 µM | TGI (ACHN renal): > 100 µM | GI50 (HCC-2998 colon): 4.54 µM | TGI (HCC-2998 colon): > 100 µM | GI50 (HOP-92 NSCLC): 6.28 µM | TGI (HOP-92 NSCLC): > 100 µM | GI50 (M14 melanoma): 3.14 µM | TGI (M14 melanoma): > 100 µM | GI50 (NCI-H23 lung): 3.88 µM | TGI (NCI-H23 lung): > 100 µM | GI50 (SF-539 CNS): 8.86 µM | TGI (SF-539 CNS): > 100 µM | GI50 (SW-620 colon): 3.63 µM | TGI (SW-620 colon): > 100 µM
